# From paper PMC10279920, “Single-molecule visualization of Pif1 helicase translocation on single-stranded DNA” (The Journal of Biological Chemistry, 2023)
# T1: GFP-Pif1 (Saccharomyces cerevisiae, UniProt P07271, H705A)
# T1 construct: N-terminal superfolder GFP fusion of nuclear isoform residues 40-859, pRSF-Duet-1, E. coli Rosetta2(DE3), Ni-NTA purified
# T1 sequence (P07271 40-859 H705A): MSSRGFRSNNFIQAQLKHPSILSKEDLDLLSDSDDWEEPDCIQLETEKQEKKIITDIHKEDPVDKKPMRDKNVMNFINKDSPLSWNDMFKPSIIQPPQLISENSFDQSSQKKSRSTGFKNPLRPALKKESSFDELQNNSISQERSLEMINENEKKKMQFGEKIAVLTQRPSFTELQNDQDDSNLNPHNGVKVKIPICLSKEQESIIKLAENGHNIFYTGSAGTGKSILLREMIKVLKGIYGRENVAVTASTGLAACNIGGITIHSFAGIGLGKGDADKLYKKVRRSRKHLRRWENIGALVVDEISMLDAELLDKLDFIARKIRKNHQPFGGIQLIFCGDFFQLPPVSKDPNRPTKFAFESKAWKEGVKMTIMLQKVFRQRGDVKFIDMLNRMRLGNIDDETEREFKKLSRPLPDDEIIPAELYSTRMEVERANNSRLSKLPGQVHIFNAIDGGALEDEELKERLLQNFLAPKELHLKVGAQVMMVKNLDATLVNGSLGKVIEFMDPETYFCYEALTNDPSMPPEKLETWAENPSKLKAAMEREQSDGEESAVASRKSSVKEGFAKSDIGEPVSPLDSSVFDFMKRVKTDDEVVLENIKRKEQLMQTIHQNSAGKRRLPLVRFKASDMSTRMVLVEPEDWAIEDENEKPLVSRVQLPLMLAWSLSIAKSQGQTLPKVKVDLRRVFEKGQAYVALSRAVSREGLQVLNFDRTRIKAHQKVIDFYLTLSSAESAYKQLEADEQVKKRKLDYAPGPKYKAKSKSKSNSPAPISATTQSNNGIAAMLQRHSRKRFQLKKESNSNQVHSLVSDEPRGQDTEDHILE
# T2: GFP-Pif1 (Saccharomyces cerevisiae, UniProt P07271, K387A)
# T2 construct: N-terminal superfolder GFP fusion of nuclear isoform residues 40-859, pRSF-Duet-1, E. coli Rosetta2(DE3), Ni-NTA purified
# T2 sequence (P07271 40-859 K387A): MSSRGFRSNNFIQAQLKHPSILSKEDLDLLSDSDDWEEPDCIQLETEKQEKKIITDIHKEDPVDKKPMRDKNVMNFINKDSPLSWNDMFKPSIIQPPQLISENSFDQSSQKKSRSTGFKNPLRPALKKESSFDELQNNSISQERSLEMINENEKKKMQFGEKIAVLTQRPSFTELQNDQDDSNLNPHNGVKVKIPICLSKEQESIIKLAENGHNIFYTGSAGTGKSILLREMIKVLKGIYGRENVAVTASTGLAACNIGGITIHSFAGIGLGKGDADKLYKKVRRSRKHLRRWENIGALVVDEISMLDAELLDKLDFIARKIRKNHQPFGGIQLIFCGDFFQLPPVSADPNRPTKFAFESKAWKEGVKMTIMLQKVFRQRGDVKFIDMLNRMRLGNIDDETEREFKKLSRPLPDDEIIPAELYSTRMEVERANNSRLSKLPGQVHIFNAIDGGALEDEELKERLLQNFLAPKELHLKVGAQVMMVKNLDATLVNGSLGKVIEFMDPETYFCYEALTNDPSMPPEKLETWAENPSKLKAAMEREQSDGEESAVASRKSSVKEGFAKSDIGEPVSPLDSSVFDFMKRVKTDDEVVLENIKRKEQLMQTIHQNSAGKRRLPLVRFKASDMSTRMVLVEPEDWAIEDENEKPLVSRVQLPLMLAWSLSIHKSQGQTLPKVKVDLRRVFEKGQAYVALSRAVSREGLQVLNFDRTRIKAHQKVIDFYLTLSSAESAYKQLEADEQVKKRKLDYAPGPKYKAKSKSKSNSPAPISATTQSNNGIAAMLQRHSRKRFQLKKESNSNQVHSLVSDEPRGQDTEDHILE
# T3: GFP-Pif1 T301A (Saccharomyces cerevisiae, UniProt P07271 40-859, T301A)
# T3 sequence: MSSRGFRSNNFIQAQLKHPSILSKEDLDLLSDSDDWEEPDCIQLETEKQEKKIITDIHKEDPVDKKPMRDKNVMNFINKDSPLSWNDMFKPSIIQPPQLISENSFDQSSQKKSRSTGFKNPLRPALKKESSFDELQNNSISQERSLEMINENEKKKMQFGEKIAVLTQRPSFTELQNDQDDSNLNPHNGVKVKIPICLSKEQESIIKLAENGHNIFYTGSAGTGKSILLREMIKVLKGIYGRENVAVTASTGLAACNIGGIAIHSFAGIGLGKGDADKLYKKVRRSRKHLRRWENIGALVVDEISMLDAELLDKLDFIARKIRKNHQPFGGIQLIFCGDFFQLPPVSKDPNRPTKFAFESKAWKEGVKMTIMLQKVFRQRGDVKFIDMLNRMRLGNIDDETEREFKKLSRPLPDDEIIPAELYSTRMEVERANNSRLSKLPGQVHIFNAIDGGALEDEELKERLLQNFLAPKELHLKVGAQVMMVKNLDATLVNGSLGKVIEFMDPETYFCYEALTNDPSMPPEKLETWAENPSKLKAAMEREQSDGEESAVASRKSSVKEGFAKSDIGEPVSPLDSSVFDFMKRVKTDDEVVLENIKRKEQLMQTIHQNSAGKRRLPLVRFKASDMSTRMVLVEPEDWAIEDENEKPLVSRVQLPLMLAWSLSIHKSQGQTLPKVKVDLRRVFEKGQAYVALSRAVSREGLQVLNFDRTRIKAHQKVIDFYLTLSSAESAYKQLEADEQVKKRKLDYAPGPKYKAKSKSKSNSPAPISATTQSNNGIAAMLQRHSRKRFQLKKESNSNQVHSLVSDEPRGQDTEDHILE
# Experiments:
# GFP-Pif1 [1] = biological target: T1, GFP-Pif1; assay: ATP hydrolysis, [γ-32P]-ATP TLC, Michaelis-Menten fit; type: biochemical; details: M13 ssDNA 1.5 μM nt, 10 nM Pif1, 5 mM MgCl2, 60 mM KCl, pH 7.5, 30 °C, no RPA; labelled compound as tracer
# GFP-Pif1 [2] = biological target: T2, GFP-Pif1; assay: as above; type: biochemical; details: M13 ssDNA 1.5 μM nt, 10 nM Pif1, 5 mM MgCl2, 60 mM KCl, pH 7.5, 30 °C, no RPA; labelled compound as tracer
# GFP-Pif1 T301A = biological target: T3, GFP-Pif1 T301A; assay: EMSA; no ATP, 5 mM Mg2+; up to 50 nM; 35 mM Tris-HCl pH 7.5, 1 mM DTT, 5 mM MgCl2, 60 mM KCl, 0.1 mg/ml BSA, no ATP, 30 min at 30 C; 5 nM ssDNA; details: protein: recombinant; tags: N-terminal superfolder GFP; Ni-NTA purified; label: 5' Alexa647
Molecule,Km (GFP-Pif1 [1]) [µM],Km (GFP-Pif1 [2]) [µM],binding result (GFP-Pif1 T301A)
Nc1ncnc2c1ncn2[C@@H]1O[C@H](COP(=O)(O)OP(=O)(O)OP(=O)(O)O)[C@@H](O)[C@H]1O [ATP],1210,540 ± 290,
GCTAGCAGTAGCCAGCATCGAACGTACGATCGGTAACGTA (ssDNA) [40-nt ssDNA],,,no binding
